Test results as given in publication PMC4496781, “Functional Roles of Aromatic Residues and Helices of Papiliocin in its Antimicrobial and Anti-inflammatory Activities” (Scientific Reports, 2015).

Experiments:
[1] = Calcein leakage from zwitterionic LUVs; settings: EYPC/CH 10:1 LUVs, mimic human erythrocytes
Experimental: Figure 5 Dose-response curves of calcein leakage from (A) egg yolk phosphatidylcholine (EYPC)/egg yolk phosphatidylglycerol (EYPG) (7:3, w:w) and (B) EYPC/cholesterol (CH) large unilamellar vesicles (LUVs; 10:1, w-w) induced by the peptides. Calcein leakage was measured 2 min after the addition of papiliocin. The lipid concentration used in the leakage experiments was 64 μM.
None of the peptides containing the N-terminal helix permeated zwitterionic vesicles (10:1 [w/w] EYPC/CH) effectively. Zwitterionic vesicles mimic the outer leaflet components of human erythrocytes.
In order to investigate the mode of action, membrane permeabilization ability was monitored using a model membrane and E.coli. Calcein leakage induced by the peptides was measured in egg yolk phosphatidylcholine (EYPC)/egg yolk phosphatidylglycerol (EYPG) (7:3, w/w) and EYPC/cholesterol (CH) large unilamellar vesicles (LUVs; 10:1, w:w) as described previously. The depolarization assay was conducted with intact E. coli bacteria (KCTC 1682) as well as E. coli spheroplasts (ATCC 25922)[51][52]. The ability of peptide to depolarize the membrane is indicated by an increase in the fluorescence of diSC3-5. […] The membrane potential dissipating activity of the peptides can be calculated as follows: […]

[2] = test system: LPS-stimulated RAW264.7 cells; test: Inhibition of NO (nitrite) production; format: cell-based, mouse; settings: 10 μM peptide stated for PapN series
From the text: When released from gram-negative bacteria, LPS causes septic shock by inducing the production of pro-inflammatory cytokines and NO[33]. To examine the structural mechanism of the anti-inflammatory activity of papiliocin, we indirectly measured inhibition of NO production by the peptides in LPS-simulated RAW264.7 macrophages. […] Papiliocin was markedly more efficient than papiliocin-2A, papiliocin-5A, or papiliocin-2A5A, implying that Trp^2 and Phe^5 are important for anti-inflammatory activity.
(§1) MICs of the peptides against six standard bacteria and four multidrug-resistant bacteria were determined by a broth microdilution assay as described previously. […] Cytotoxicities against mammalian cells were measured against human RBCs, mouse macrophage-derived RAW264.7 cells, and fibroblast NIH-3T3 cells. The anti-inflammatory activities of the peptides were examined by inhibiting nitrite production in LPS-stimulated RAW264.7 cells.

[3] = test system: human erythrocytes; test: Hemolytic activity; format: cell-based
Experimental: (§2) We examined the cytotoxicity against human erythrocytes. […] Next, we examined the cytotoxicity of the peptides against RAW264.7 macrophage cells. We assessed the effects of the peptides on cell growth by measuring mitochondrial reduction of MTT to a colored product in live cells. […] On the other hand, PapC produced high cytotoxicity against RAW264.7 cells, even at low concentrations. […] In case of PapN-2A, Pap-5A, and Pap-2A5A, the cell survival rates at a peptide concentration of 100 μM were approximately 90% or more. Thus, Trp^2 and Phe^5 are important for the cytotoxic activity of papiliocin toward RAW264.7 cells.
as §1

[4] = test system: RAW264.7 macrophage cells; test: Cytotoxicity, MTT; format: cell-based, mouse; settings: MTT, 10 μM peptide
Experimental: as §2, §1

[5] = STD-NMR of peptides bound to LPS; format: binding; settings: 0.5 mM peptide, 0.1 mg/mL LPS in D2O, pH 5.9, 298 K
Experimental: To investigate the mode of peptide interaction with LPS, we performed STD-NMR experiments.
(A) Papiliocin, (B) PapN, and (C) PapC. Spectral differences primarily constituted resonances fromn the peptide protons bound to LPS. The STD experiments were carried out using a peptide concentration of 0.5 mM in presence of 0.1 mg/mL LPS in D2O, pH 5.9 at 298 K.

[6] = test system: MDRPA 2095(R); settings: broth microdilution, 16 h; unit not given
Experimental: (§3) We examined the antimicrobial activities of the peptides against multidrug-resistant bacterial strains, including four gram-negative species (S. typhimurium 8009(R), E. coli 1229(R), P. aeruginosa 2095(R), and A. baumannii 12035(R); Table 3).
as §1

[7] = test system: MDREC 1229(R); settings: broth microdilution, 16 h; unit not given
Experimental: as §3, §1

[8] = test system: MDRST 8009(R); settings: broth microdilution, 16 h; unit not given
Experimental: as §3, §1

[9] = test system: MDRAB 12035(R); settings: broth microdilution, 16 h; unit not given
Experimental: as §3, §1

[10] = test system: gram-positive bacteria (B. subtilis, E. faecalis, S. aureus)
Experimental: (§4) This property is assessed by the therapeutic index which can be defined as a ratio of the […] against human hRBCs to the MIC against bacterial cells.
as §1

[11] = test system: gram-negative bacteria (E. coli, S. typhimurium, P. aeruginosa)
Experimental: as §4, §1

[12] = test system: E. coli (KCTC 1682); test: Time-killing kinetics; format: cell-based, Escherichia coli; settings: even at 4× MIC, 37 °C
[13] = test system: Eenterococcus faecalis; settings: broth microdilution, 16 h incubation; three independent experiments in triplicate, SD 14.0%
Experimental: as §1

[14] = test system: Pseudomonas aeruginosa; settings: broth microdilution, 16 h incubation; three independent experiments in triplicate, SD 14.0%
Experimental: as §1

[15] = test system: Salmonella typhimurium; settings: broth microdilution, 16 h incubation; three independent experiments in triplicate, SD 14.0%
Experimental: as §1

[16] = test system: Bacillus subtilis; settings: broth microdilution, 16 h incubation; three independent experiments in triplicate, SD 14.0%
Experimental: as §1

[17] = test system: Escherichia coli; settings: broth microdilution, 16 h incubation; three independent experiments in triplicate, SD 14.0%
Experimental: as §1

[18] = test system: Staphylococcus aureus; settings: broth microdilution, 16 h incubation; three independent experiments in triplicate, SD 14.0%
Experimental: as §1

[19] = ratio MHC (μM) over GM of MIC (μM)

AVAVVGQAATVVK-NH2 [PapC]
permeabilization of zwitterionic vesicles, in words [1]: permeabilized zwitterionic vesicles effectively | inhibition of NO production, in words [2]: does not inhibit NO production | MHC (minimal peptide concentration that produces hemolysis) ([3]; human RBCs, 200 μM entered when no detectable hemolysis at 100 μM): 1.56 µM | hemolytic activity ([3]; human erythrocytes, 6.25 μM peptide): 49% | survival rate of RAW264.7 cells [4]: 44.2% | STD effect in presence of LPS [5]: not detected for any region | MIC, MDRPA 2095(R) [6]: >128 µM | MIC, MDREC 1229(R) [7]: >128 µM | MIC, MDRST 8009(R) [8]: >128 µM | MIC, MDRAB 12035(R) [9]: >128 µM | Therapeutic Index (MHC/GM), gram-positive [10, 19]: 0.006 | GM of the MIC values, gram-positive ([10]; three gram-positive standard strains, 256 μM used when no activity at 128 μM): 256 µM | Therapeutic Index (MHC/GM), gram-negative [11, 19]: 0.007 | GM of the MIC values, gram-negative ([11]; three gram-negative standard strains, 256 μM used when no activity at 128 μM): 213 µM | killing of E. coli within an hour [12]: did not detectably kill bacteria within an hour | MIC, Eenterococcus faecalis [13]: >128 µM | MIC, Pseudomonas aeruginosa [14]: >128 µM | MIC, Salmonella typhimurium [15]: >128 µM | MIC, Bacillus subtilis [16]: >128 µM | MIC, Escherichia coli [17]: 128 µM | MIC, Staphylococcus aureus [18]: >128 µM
